From paper PMC5642580, “Calyxin Y sensitizes cisplatin-sensitive and resistant hepatocellular carcinoma cells to cisplatin through apoptotic and autophagic cell death via SCF βTrCP-mediated eEF2K degradation” (Oncotarget, 2017)

Key:
[1] = Hematological parameters of nude mice bearing HepG2/CDDP xenograft; type: in vivo, BALB/c nu/nu mice; details: calyxin Y 20 mg/kg i.p. every other day and/or CDDP 4 mg/kg i.p. once per week, 19 days; mean ± S.D., n = 3
Description: (§1) All animal procedures were performed according to comply with the ARRIVE guidelines, the U.K. Animals (Scientific Procedures) Act, 1986 and associated guidelines. The protocol was approved by the Institutional Animal Care and Use Committee at China Pharmaceutical University. Four-week-old BALB/c nu/nu mice (18-22 g) purchased from Shanghai Laboratory Animal Center of Chinese Academy of Sciences (Shanghai, China) were used for in vivo experiments. Animals were housed at a constant room temperature with a 12 h:12 h light/dark cycle and were provided a standard rodent diet and water. HepG2/CDDP cells were harvested and injected subcutaneously into the right flank (1 × 10^7 cells in 150 μl of cold PBS). […] (1) control group, mice were injected intraperitoneally (i.p.) with 10% DMSO + 90% normal saline (n = 6); (2) […] group: mice were injected i.p. with 20 mg/kg […] every other day (n = 6); (3) CDDP group: mice were injected i.p. with 4 mg/kg CDDP once per week (n = 6); (4) […] + CDDP group: mice were injected i.p. with 20 mg/kg […] every other day and 4 mg/kg CDDP once per week (n = 6). The tumor volume was determined by measuring length (l) and width (w) and calculating volume (V = 0.5 × l × w^2) at the indicated time points. At the end of treatment, the animals were sacrificed, and the tumors were removed and weighed for use in histology and protein expression studies. Using a standard saphenous vein blood collection technique, blood was drawn for hematologic and serum biochemistry analyses.

eEF2K in HepG2 cells = details: calyxin Y 5, 10, 20 µM, 24 h
Description: (§2) HepG2 and HepG2/CDDP cells were lysed in western blotting lysis buffer and centrifuged at 12000 g for 10 min. The procedures for Western blotting were described previously.

[2] = system: eEF2K in HepG2/CDDP cells; details: calyxin Y 5, 10, 20 µM, 24 h
Description: as §2

HepG2/CDDP cells [3] = test: MTT cell viability assay; type: cell-based, human
Description: Human hepatocellular carcinoma HepG2 cells were purchased from Cell Bank of Shanghai Institute of Biochemistry and Cell Biology, Chinese Academy of Sciences (Shanghai, China). mtrDNA sequence analysis was done by the cell bank to confirm the species and cells were tested free from mycoplasma. CDDP-selected drug-resistant HepG2/CDDP cells were derived from HepG2 cells by utilizing serial passage in the presence of increasing CDDP concentrations. Briefly, cells were treated with CDDP (1 μM) for 72 h. The media and dead cells were removed, and cells were allowed to recover for a further 72 h and then were treated with a higher concentration of CDDP. This development period was carried out for approximately 6 months, and finally, we obtained the HepG2/CDDP cells. HepG2/CDDP cells were then continuously maintained in the presence of 20 μM CDDP for a further 3 months to maintain stability. All cells were cultured in DMEM media containing 10% fetal bovine serum and incubated with 100 U/ml penicillin and 100 μg/ml streptomycin (Thermo) at 37 °C under an atmosphere of 95% air and 5% CO2.
HepG2 and HepG2/CDDP cells were plated in 96-well plates at a density of 5000 cells in 200 μl medium per well and incubated overnight. The cells were treated with calyxin Y and/or CDDP for 24 h, 48 or 72 h. The cell viability of HepG2 and HepG2/CDDP cells was measured by MTT assay as described previously.

[4] = Hematological biochemical parameters of nude mice bearing HepG2/CDDP xenograft; type: in vivo, BALB/c nu/nu mice; details: calyxin Y 20 mg/kg i.p. every other day and/or CDDP 4 mg/kg i.p. once per week, 19 days; mean ± S.D., n = 3
Description: as §1

HepG2 cells [5] = test: MTT cell viability assay; type: cell-based, human; details: 24 h
Description: HepG2 and HepG2/CDDP cells were plated in 96-well plates at a density of 5000 cells in 200 μl medium per well and incubated overnight. The cells were treated with […] and/or CDDP for 24 h, 48 or 72 h. The cell viability of HepG2 and HepG2/CDDP cells was measured by MTT assay as described previously.

[6] = system: eEF2K mRNA in HepG2 cells; details: calyxin Y 5, 10, 20 µM, 24 h
Description: (§3) Total RNA samples from HepG2 and HepG2/CDDP cells were extracted using RNAiso Plus reagent following the manufacturer’s protocols. RNA (1 μg) was reverse-transcribed using a ReverTra Ace qPCR RT-Kit (Toyobo Life Science, Osaka, Japan) in a MyCycler PCR system (BioRad Laboratories, Hercules, CA). SYBR Green PCR Master Mix was purchased from Toyobo Life Science. The 2^−ΔΔCT cycle threshold method was used for the calculation of relative differences in mRNA abundance with a LightCycler 480 qPCR System (Roche Molecular Biochemicals, Mannheim, Germany). Data were normalized to the expression of β-Actin. The results of qRT-PCR were expressed as fold-changes. The normalized value of the target mRNA of the control group is arbitrarily presented as 100. The pairs of primer for PCR were listed below: • eEF2K: (sense) 5′-[…]-3′; • eEF2K: (antisense) 5′-[…]-3′. • β-Actin: (sense) 5′-[…] CAATG-3′; • β-Actin: (antisense) 5′-[…]-3′.

[7] = system: eEF2K mRNA in HepG2/CDDP cells; details: calyxin Y 5, 10, 20 µM, 24 h
Description: as §3

HepG2/CDDP cells [8] = test: Western blot of cleaved caspase-3/7/PARP; type: cell-based, human; details: CDDP 10 µM with or without calyxin Y 20 µM, 24 h
Excerpt: The procedures for Western blotting were described previously.

HepG2 cells [9] = test: Annexin V/7-AAD staining assay (flow cytometry); type: cell-based, human; details: CDDP 10 µM with or without calyxin Y 20 µM, 24 h
Description: HepG2 and HepG2/CDDP cells were plated on 6-well plates and incubated overnight. Next, the cells were treated with […] and/or CDDP for 24 h. Cells in 200 μl of binding buffer were stained with 5 μl of Annexin V-Alexa Fluor 647 ([…] Biotech Co., Ltd., China) and 5 μl of 7-AAD at room temperature for 15 min. The cells were then analyzed by flow cytometry with a BD Accuri C6 flow cytometer (Becton & Dickinson Company, Franklin Lakes, NJ, USA). The cells undergoing apoptosis are Annexin V positive.

Hematocrit [1] [%] | Hemoglobin [1] [g/L] | Lymphocytes [1] | Mean corpuscular hemoglobin [1] [pg] | Mean corpuscular volume [1] [fL] | Platelet counts [1] | Red blood cells [1] | White blood cells [1] | Alanine aminotransferase [4] [U/L] | Alkaline phosphatase [4] [U/L] | Aspartate aminotransferase [4] [U/L] | Molecule | further results
44.1 ± 1.4 | 138.4 ± 7.0 | 18.5 ± 1.8 10^9/L | 14.5 ± 0.13 | 47.3 ± 3.3 | 588.5 ± 80.5 10^9/L | 11.0 ± 0.27 10^12/L | 15.2 ± 2.2 10^9/L | 37.5 ± 1.4 | 115.4 ± 2.7 | 129.3 ± 3.5 | Calyxin Y | eEF2K expression (eEF2K in HepG2 cells): reduced eEF2K expression in a dose-dependent manner; eEF2K expression [2]: reduced eEF2K expression in a dose-dependent manner; cell viability (HepG2/CDDP cells [3]; HepG2/CDDP cells, calyxin Y 10, 20, 30, 40 µM, 24 h): inhibited the viability of HepG2/CDDP cells as much as it did that of HepG2 cells in a concentration-dependent manner; cell viability (HepG2 cells [5]; calyxin Y 10, 20, 30, 40 µM): concentration-dependent manner; eEF2K mRNA levels [6]: not significantly changed; eEF2K mRNA levels [7]: not significantly changed
44.3 ± 2.8 | 126.3 ± 4.7 | 8.9 ± 1.9 10^9/L | 13.4 ± 0.29 | 47.7 ± 3.5 | 562.1 ± 19.2 10^9/L | 9.6 ± 0.67 10^12/L | 9.9 ± 0.39 10^9/L | 40.2 ± 1.2 | 125.4 ± 0.91 | 158.5 ± 5.1 | [NH2][Pt]([NH2])([Cl])[Cl] [CDDP, cisplatin] | cleavage of caspase-7, caspase-3 and PARP (HepG2/CDDP cells [8]): did not cause the cleavage; IC50 (HepG2/CDDP cells [3]; HepG2/CDDP cells, 24 h, MTT): 95.4 µM; resistance index (HepG2/CDDP cells [3]; HepG2/CDDP vs HepG2, IC50 at 24 h): ~6 fold; IC50 (HepG2 cells [5]; MTT): 16.7 µM; apoptosis (AV+ cells) (HepG2 cells [9]): 31%
